According to patent publication US12331068B2, “Compositions and methods for inhibiting CD73” (Peloton Therapeutics, Inc., priority 2018, dated 2025):

Assays:
[1] = biological target: T1, Human CD73 (Homo sapiens, UniProt P21589); assay: CD73 Enzyme Assay (EnzChek PNP/MESG kinetic readout of AMP hydrolysis); format: biochemical; settings: 0.25 nM hCD73, 25 μM AMP; read-out: CD73 Enzyme Assay IC50
T1 construct: purchased R&D Systems; host or cells: CHO cells
T1 sequence (P21589 27-549): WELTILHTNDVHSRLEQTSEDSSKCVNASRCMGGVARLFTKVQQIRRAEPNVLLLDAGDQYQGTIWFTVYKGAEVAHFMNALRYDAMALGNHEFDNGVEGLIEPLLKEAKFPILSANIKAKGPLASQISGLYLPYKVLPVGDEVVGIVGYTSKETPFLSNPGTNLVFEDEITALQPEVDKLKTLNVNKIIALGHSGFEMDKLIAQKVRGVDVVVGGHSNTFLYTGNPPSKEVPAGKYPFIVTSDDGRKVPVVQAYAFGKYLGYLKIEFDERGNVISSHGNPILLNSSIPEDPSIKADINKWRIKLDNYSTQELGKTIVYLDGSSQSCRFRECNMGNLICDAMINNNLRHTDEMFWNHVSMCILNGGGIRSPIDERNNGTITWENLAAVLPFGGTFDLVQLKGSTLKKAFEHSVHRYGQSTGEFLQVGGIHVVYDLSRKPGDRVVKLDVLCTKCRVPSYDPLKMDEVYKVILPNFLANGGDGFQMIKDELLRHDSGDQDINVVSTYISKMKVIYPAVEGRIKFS
Experimental: A compound of the present disclosure (5 μL) was transferred to a 384-well assay plate. The compound was added in a 15 point, 3-fold serial dilution (300 μM to 0.0002 μM) in DMSO. […] The plate was immediately placed in a plate reader (Synergy 2 or Spark 10), and a reading was taken every minute for 10 to 20 minutes in a kinetic run at 360 nm. The linear portion of the curve was used to determine the observed rate (initial velocity). Low signal controls containing 100 μM adenosine 5′-(α,β-methylene) diphosphate and high signal controls containing no compound were measured for each plate.
IC50 values were calculated using Dotmatics template equation for 4-parameter fit. Results are expressed as % inhibition using the following equation: […]

[2] = biological target: T2, CD73 on U138 human neuroglioma cells (Homo sapiens, UniProt P21589); assay: CD73 Cell-Based Assay (inorganic phosphate from AMP, malachite green); settings: AMP substrate, 2 hours at 37° C., read-out: CD73 Cell-Based assay IC50
T2 construct: U138 cells were obtained from ATCC and cultured in DMEM with 10% FBS; host or cells: U138 human neuroglioma cells
T2 sequence (P21589 27-549): T1 sequence (P21589 27-549)
Experimental: U138 human neuroglioma cells were used in these experiments. U138 cells were obtained from ATCC and cultured in DMEM with 10% FBS. 2500 cells were seeded into 96-well plate with 100 μL of media the day before the experiment. […] After washing, 100 μL of buffer was added to each well, then 100 μL of a mixture of AMP substrate (200 μM) and diluted compound was added to each well. The cells were incubated at 37° C. (with 5% CO2) for 2 hours. 50 μL of supernatant was transferred to a 96-well assay plate and the concentration of inorganic phosphate was determined using malachite green reagent (R&D System; Cat: DY996).

| IC50 [1] [nM] | IC50 [2] [nM] | Structure (SMILES) |
| --- | --- | --- |
| < 10 | < 10 | N#Cc1c(Cl)nc2c(ccn2[C@@H]2O[C@H](CS(=O)(=O)CP(=O)(O)O)[C@@H](O)[C@H]2O)c1NC1CC2CC2C1 (stereo partly shown) [Compound 33] |
| < 10 | < 10 | C[C@@H](Nc1c(C#N)c(Cl)nc2c1ccn2[C@@H]1O[C@H](COP(=O)(O)CP(=O)(O)O)[C@@H](O)[C@H]1O)c1ccc(F)cc1 [Compound 34] |
| < 10 | < 10 | C[C@H](Nc1c(C#N)c(Cl)nc2c1ccn2[C@@H]1O[C@H](COP(=O)(O)CP(=O)(O)O)[C@@H](O)[C@H]1O)c1ccc(F)cc1 [Compound 35] |
| < 10 | < 10 | N#Cc1c(Cl)nc2c(ccn2[C@@H]2O[C@H](COP(=O)(O)CP(=O)(O)O)[C@@H](O)[C@H]2O)c1NC1CCC1 [Compound 36] |
| < 10 | < 10 | N#Cc1c(Cl)nc2c(ccn2[C@@H]2O[C@H](COP(=O)(O)CP(=O)(O)O)[C@@H](O)[C@H]2O)c1N1CCC(F)(F)C1 [Compound 37] |
| < 10 | 10 to 100 | NC(=O)c1c(Cl)nc2c(ccn2C2O[C@H](COCP(=O)(O)O)[C@@H](O)[C@H]2O)c1NC1CCCC1 (stereo partly shown) [Compound 39] |
| < 10 | < 10 | N#Cc1c(Cl)nc2c(ccn2[C@@H]2O[C@H](COP(=O)(O)CP(=O)(O)O)[C@@H](O)[C@H]2O)c1N1CC2CCCC2C1 (stereo partly shown) [Compound 43] |
| < 10 | < 10 | Cc1nc2c(ccn2[C@@H]2O[C@H](COCP(=O)(O)O)[C@@H](O)[C@H]2O)c(NC2CCCC2)c1C#N [Compound 44] |
| < 10 | < 10 | N#Cc1c(Cl)nc2c(ccn2[C@@H]2O[C@H](COCP(=O)(O)O)[C@@H](O)[C@H]2O)c1N[C@@H]1CCC(F)(F)C1 [Compound 46] |
| < 10 | < 10 | N#Cc1c(Cl)nc2c(ccn2[C@@H]2O[C@H](COP(=O)(O)CP(=O)(O)O)[C@@H](O)[C@H]2O)c1NC1CC(F)(F)C1 [Compound 47] |
| < 10 | < 10 | N#Cc1cnc2c(ccn2[C@@H]2O[C@H](COP(=O)(O)CP(=O)(O)O)[C@@H](O)[C@H]2O)c1NC1CCCC1 [Compound 48] |
| < 10 | < 10 | Cc1nc2c(ccn2[C@@H]2O[C@H](COP(=O)(O)CP(=O)(O)O)[C@@H](O)[C@H]2O)c(NC2CCCC2)c1C#N [Compound 49] |
| < 10 | < 10 | N#Cc1c(Cl)nc2c(ccn2[C@@H]2O[C@H](CO[C@H](CO)P(=O)(O)O)[C@@H](O)[C@H]2O)c1N1CC2CCCC2C1 (stereo partly drawn) [Compound 50, ((1S)-1-(((2R,3S,4R,5R)-5-(6-chloro-5-cyano-4-(hexahydrocyclopenta[c]pyrrol-2 (1H)-yl)-1H-pyrrolo[2,3-b]pyridin-1-yl)-3,4-dihydroxytetrahydrofuran-2-yl)methoxy)-2-hydroxyethyl)phosphonic acid] |
| < 10 | < 10 | N#Cc1c(Cl)nc2c(ccn2[C@@H]2O[C@H](COC(CO)P(=O)(O)O)[C@@H](O)[C@H]2O)c1N1CC2CCCC2C1 (stereo partly shown) [Compound 51] |
| < 10 | < 10 | N#Cc1c(Cl)nc2c(ncn2[C@@H]2O[C@H](COCP(=O)(O)O)[C@@H](O)[C@H]2O)c1NC1CCCC1 [Compound 55, ((((2R,3S,4R,5R)-5-(5-chloro-6-cyano-7-(cyclopentylamino)-3H-imidazo[4,5-b]pyridin-3-yl)-3,4-dihydroxytetrahydrofuran-2-yl)methoxy)methyl)phosphonic acid] |
| < 10 | < 10 | N#Cc1c(Cl)nc2c(ncn2[C@@H]2O[C@H](COCP(=O)(O)O)[C@@H](O)[C@H]2O)c1NC1CC2CC2C1 (stereo partly shown) [Compound 56] |
| < 10 | < 10 | N#Cc1c(Cl)nc2c(ncn2[C@@H]2O[C@H](COCP(=O)(O)O)[C@@H](O)[C@H]2O)c1N1CC2CCCC2C1 (stereo partly shown) [Compound 57] |
| < 10 | < 10 | N#Cc1c(Cl)nc2c(ncn2[C@@H]2O[C@H](COCP(=O)(O)O)[C@@H](O)[C@H]2O)c1N1CC2CC2C1 (stereo partly shown) [Compound 58] |

| IC50 [1] [nM] | IC50 [2] [nM] | Structure (SMILES) |
| --- | --- | --- |
| < 10 | < 10 | N#Cc1c(Cl)nc2c(ccn2[C@@H]2O[C@H](COCP(=O)(O)O)[C@@H](O)[C@H]2O)c1N1CC[C@H](F)C1 [Compound 60] |
| < 10 | < 10 | N#Cc1c(Cl)nc2c(cnn2[C@@H]2O[C@H](COCP(=O)(O)O)[C@@H](O)[C@H]2O)c1N1CC2CCCC2C1 (stereo partly shown) [Compound 61] |
| < 10 | < 10 | N#Cc1c(Cl)nc2c(cnn2[C@@H]2O[C@H](COCP(=O)(O)O)[C@@H](O)[C@H]2O)c1N1CCC(F)(F)C1 [Compound 62, ((((2R,3S,4R,5R)-5-(6-chloro-5-cyano-4-(3,3-difluoropyrrolidin-1-yl)-1H-pyrazolo[3,4-b]pyridin-1-yl)-3,4-dihydroxytetrahydrofuran-2-yl)methoxy)methyl)phosphonic acid] |
| < 10 | < 10 | N#Cc1c(Cl)nc2c(ncn2[C@@H]2O[C@H](COP(=O)(O)CP(=O)(O)O)[C@@H](O)[C@H]2O)c1N1CC2CC2C1 (stereo partly shown) [Compound 63] |
| < 10 | < 10 | N#Cc1c(Cl)nc2c(ccn2[C@@H]2O[C@H](COCP(=O)(O)O)[C@@H](O)[C@H]2O)c1N1CC(F)(F)C1 [Compound 65] |
| < 10 | < 10 | N#Cc1c(Cl)nc2c(ccn2[C@@H]2O[C@H](COCP(=O)(O)O)[C@@H](O)[C@H]2O)c1N1CC[C@@H](F)C1 [Compound 66] |
| < 10 | < 10 | N#Cc1c(Cl)nc2c(ccn2[C@@H]2O[C@H](COCP(=O)(O)O)[C@@H](O)[C@H]2O)c1N1C[C@@H](F)[C@@H](F)C1 [Compound 67, ((((2R,3S,4R,5R)-5-(6-chloro-5-cyano-4-((3S,4R)-3,4-difluoropyrrolidin-1-yl)-1H-pyrrolo[2,3-b]pyridin-1-yl)-3,4-dihydroxytetrahydrofuran-2-yl)methoxy)methyl)phosphonic acid] |
| < 10 | < 10 | N#Cc1c(Cl)nc2c(ccn2[C@@H]2O[C@H](COCP(=O)(O)O)[C@@H](O)[C@H]2O)c1N1C[C@@H](F)[C@H](F)C1 [Compound 68] |
| < 10 | < 10 | N#Cc1c(Cl)nc2c(cnn2[C@@H]2O[C@H](COCP(=O)(O)O)[C@@H](O)[C@H]2O)c1NC1CCCC1 [Compound 69, ((((2R,3S,4R,5R)-5-(6-chloro-5-cyano-4-(cyclopentylamino)-1H-pyrazolo[3,4-b]pyridin-1-yl)-3,4-dihydroxytetrahydrofuran-2-yl)methoxy)methyl)phosphonic acid] |
| < 10 | < 10 | N#Cc1c(Cl)nc2c(cnn2[C@@H]2O[C@H](COCP(=O)(O)O)[C@@H](O)[C@H]2O)c1NC1CC2CC2C1 (stereo partly shown) [Compound 70] |
| < 10 | < 10 | N#Cc1c(Cl)nc2c(cnn2[C@@H]2O[C@H](COCP(=O)(O)O)[C@@H](O)[C@H]2O)c1N1CC2CC2C1 (stereo partly shown) [Compound 71] |
| < 10 | < 10 | N#Cc1c(Cl)nc2c(cnn2[C@@H]2O[C@H](COP(=O)(O)CP(=O)(O)O)[C@@H](O)[C@H]2O)c1N1CC2CC2C1 (stereo partly shown) [Compound 72] |
| < 10 | < 10 | N#Cc1c(Cl)nc2c(ccn2[C@@H]2O[C@H](CS(=O)(=O)CP(=O)(O)O)[C@@H](O)[C@H]2O)c1N[C@H]1C[C@H](F)C1 [Compound 76, (((((2S,3S,4R,5R)-5-(6-chloro-5-cyano-4-(((1r,3R)-3-fluorocyclobutyl)amino)-1H-pyrrolo[2,3-b]pyridin-1-yl)-3,4-dihydroxytetrahydrofuran-2-yl)methyl)sulfonyl)methyl)phosphonic acid] |
| < 10 | < 10 | N#Cc1c(Cl)nc2c(cnn2[C@@H]2O[C@H](COCP(=O)(O)O)[C@@H](O)[C@H]2O)c1N1CC(F)(F)C1 [Compound 78] |
| < 10 | < 10 | N#Cc1c(Cl)nc2c(cnn2[C@@H]2O[C@H](COCP(=O)(O)O)[C@@H](O)[C@H]2O)c1N1CC[C@H](F)C1 [Compound 79] |
| < 10 | < 10 | N#Cc1c(Cl)nc2c(cnn2[C@@H]2O[C@H](COCP(=O)(O)O)[C@@H](O)[C@H]2O)c1N1C[C@@H](F)[C@H](F)C1 [Compound 80] |
| < 10 | < 10 | N#Cc1c(Cl)nc2c(cnn2[C@@H]2O[C@H](COCP(=O)(O)O)[C@@H](O)[C@H]2O)c1NC1CC(F)(F)C1 [Compound 81] |
